Data set [1] relates to Brown Norway (BN) rats sensitized to ragweed pollen extract. Conditions: aerosolized 0.05% brimonidine or 0.005% dexmedetomidine for 10 minutes before ragweed extract, FIG. 3.
Method: The control group rats were pretreated with aerosolized saline and administered aerosolized saline. The saline group rats were pretreated with aerosolized saline, then exposed to aerosolized ragweed extract for 10 minutes.
At 10 minutes after completion of the allergen exposure, rats were anesthetized and exsanguinated, and their lungs were lavaged with 50 ml of buffer solution. The resulting bronchoalveolar lavage (BAL) fluid was centrifuged to remove the cells, and the supernatants were analyzed for albumin concentration using an ELISA assay for rat albumin.
Data set [2] concerns mice with LPS-induced sepsis. Conditions: eight mice per group; intranasal drip pulmonary delivery at 0, 6, 23.5 hr; LPS 50 μg at 24 hour; control three out of eight died. As to the method:
In all three groups, LPS-induced sepsis was caused by delivery of highly concentrated LPS (50 μg) at 24 hour. […] In the steroid-treated mice, an inhaled corticosteroid (ICS) was delivered for 5 minutes through intranasal drip pulmonary delivery at 0 hr, 6 hr, and 23.5 hr. In the control group, no drug was administered prior to inducing LPS sepsis.

A short description of data set [3]: Ionization as a function of pH. The class given is physicochemical. The text has this:
At a lower pH and a lower lipophilicity, bronchial mucosal membrane retention time is maximized and mucosal penetration is reduced. More of a drug is washed away and less is absorbed into lung parenchyma increasing the surface mucosal effect. The higher the lipophilicity, the greater is the selective α-2 agonist's penetration through the lipophilic mucosal cell membranes. This is because at a more alkaline pH, more of the compound is present in a non-ionized form.
When a selective α-2 agonist is lipophilic, it becomes highly ionized as it enters the distal esophagus and stomach. […] Thus, it is very poorly absorbed in lipophilic membranes of the gastrointestinal tract and therefore, results in less systemic absorption.

Data set [4] concerns α-2 over α-1 adrenergic receptors. Conditions: cited from earlier work.
On data set [5], the source says:
The doses are estimates only, assuming less than 20% nebulized DTL (dose to lung).

This is another data set of the same source.
The text on data set [6]: The terms “salt” and “constituent of a balanced salt solution” are used interchangeably for the purposes of the present invention. They are a subset of agents that improve solubility of the inventive formulations.
This is another data set of the same source.

For data set [7] the following is noted: cited from earlier work.

Converted amounts (≈) assume the structure as drawn. Read-outs that look alike come from different tables or passages of the source. Bounds are passed on as bounds.

On to `Brc1c(NC2=NCCN2)ccc2nccnc12.O=C(O)C(O)C(O)C(=O)O` [brimonidine, 5-bromo-6-(2-imidazolin-2-ylamino)quinoxaline D-tartrate], for which, in [1], the “BAL albumin concentration after ragweed exposure” value is reported as “no apparent protective effect”. Moreover, the “deaths because of LPS-induced sepsis” value in [2] is recorded as “no animals died”.

`Cc1cccc([C@H](C)c2cnc[nH]2)c1C` [dexmedetomidine]: the ionized result in [3] (in pharynx (pH is about 6.8)) is given as “about 65%”; in data set [3] (in stomach (pH of less than 5.0)), ~100%; in data set [3] (lungs and airways, pH about 7.4 to 7.8), 10-23%; in data set [3] (pH of 6.7) it was “about 65%”; in [3] (pH of 8.0 or greater) it was “about 10%”. The non-ionized result is given as “about 35%” in [3] (pH of 6.7) and “about 90%” in data set [3] (pH of 8.0 or greater). Also, the solubility in the data set “physchem” (pH 6, aqueous buffer) was 1950 µg/mL (≈ 9750 µM); in the data set “physchem” (pH 6.4, aqueous buffer), ~600 µg/mL (≈ 3000 µM); in the data set “physchem” (pH 7, aqueous buffer), 224 µg/mL (≈ 1120 µM); in the data set “physchem” (pH 7.4, aqueous buffer), ~150 µg/mL (≈ 749 µM); in “physchem” (pH 8, aqueous buffer), 134 µg/mL (≈ 669 µM). In addition, the α2/α1 selectivity result in [4] is on record as “over 1,500”. In addition, in data set [1], the “BAL albumin concentration after ragweed exposure” value is recorded as “albumin levels similar to those of control rats”. Moreover, the wheeze-auscultation score result in [5] (nebulized 0.03% at pH 5.0, reduced from baseline 10, scale for mild asthma) is “about 5”. Besides, the “lung effects (wheeze and airway resistance versus baseline)” value in [5] (nebulized 0.03% at pH 8.0, versus pH 5.0) was “the lung effects are greater”. The max soluble concentration is, setting by setting: (pH 6) 0.195%; (pH 6.4) 0.060%; (pH 7) 0.023%; (pH 7.4) 0.015%; (pH 8) 0.013%. Also, the “max soluble concentration, BSS solution” value in data set [6] (pH 7) was “≧0.10%”. In addition, the “soluble concentration with constituents of a balanced salt solution” value in data set [6] (pH 7.1) is listed as ≥ 0.1%.

For `CNC1(c2ccccc2Cl)CCCCC1=O` (stereo not drawn) [ketamine], the ionization entry in [3] (pH of about 8.5) was “about 10%”. The ionization entry in data set [3] (physiologic pH) is on record as “over 60%”. Also, in data set [7] (in vivo), the “plasma level at which dissociative changes have been documented” value was ≤ 1000 ng/mL and the “plasma level at which sedation occurs” value was “about 9000 μg/L”. The “plasma levels with prior art inhalation forms” value in data set [7] (inhalation) is reported as “over 800 ug/L”.

The term solubility denotes how much of the substance goes into solution per volume. Higher therefore signals a readily soluble substance.

Values taken from patent publication US20110244058A1, “Compositions and methods for treatment of pulmonary diseases and conditions” (priority 2008, published 2011).
